The record followed here is patent publication US20210186982A1, “METHODS AND COMPOSITIONS FOR TREATING MELANOMA” (UNIVERSITE NICE SOPHIA ANTIPOLIS, priority 2017, published 2021).

Assay [1] concerns 12051u and A375 cells. The assay can be described thus: Immunoblot analysis of proliferation and apoptosis proteins. Format: cell-based, human. On the procedure:
(§1) Melanoma cells were harvested as described before 6. Cells were lysed at 4° C. in RIPA buffer (Millipore) supplemented with Pierce™ Protease and Phosphatase Inhibitor Mini Tablets, and briefly sonicated. Cell lysates were cleared at 16,000 xg for 15 min at 4° C. Whole cell lysates were subjected to SDS-PAGE and immunoblot analysis as previously described 6.

The test system of assay [2] is 12051u cells. Description: Cell cycle / sub-G1 analysis by flow cytometry (PI). Format: cell-based, human. Particulars: 24 h. As to the method: (§2) Cell cycle profiles and sub-G1 analysis were performed by flow cytometry analysis of propidium iodide (PI)-stained cells. Briefly, following permeabilization in icecold ethanol 70%, cells were stained with PI 40 μg/ml in PBS supplemented with RNAse A 100 μg/ml before analysis using a BD FACSCanto cytometer.

Assay [3] relates to A375 cells. The assay is described as above. Format: cell-based, human. Particulars: 24 h. On the procedure: as §2
Assay [4] has as its system K48-linked poly-ubiquitinated proteins. Description: Immunoblot analysis of poly-ubiquitinated proteins in A375 cells. In kind it is cell-based, human. On the procedure: as §1
(A western blot detects proteins with antibodies after separation by electrophoresis.)

Assay [5] deals with A375. The assay can be described thus: Real-time imaging growth curve (IncuCyte Zoom). In kind it is cell-based, human. Particulars: 2 μM; 3 days; compared with bortezomib and VLX1570. On the procedure:
FIG. 8. USP14 inhibition induces growth inhibition and cytotoxicity on melanoma cell lines. (A) Growth curve of A375 treated with 2 μM b-AP15, 2 μM VLX1570 or […] bortezomib (BTZ). Data were acquired in triplicate during 3 days using an IncuCyte Zoom. (B) and (C) Cytotoxic effects of USP14 inhibition on melanoma cells. A375 and Me1501 cells were treated with the indicated doses of b-AP15 or VLX1570, and stained with cytotox green reagent (100 nM). Cytotoxicity was monitored in triplicate for 72 h with an IncuCyte imaging system.

Assay [6] deals with Pt#1 patient cells. The assay can be described thus: MTS conversion assay, patient melanoma cell proliferation. The conditions noted are these: Homo sapiens; Patient cells Pt#1; MET; BRAF*; resistance none; 48 h MTS; read-out: b-AP15 IC50. In kind it is cell-based. On the procedure:
(§3) Cell proliferation was measured by a MTS conversion assay using the CellTiter 96® Aqueous Non-Radioactive Cell Proliferation kit (Promega, Madison Wis.) according to the manufacturer instructions. Cells were seeded in 96-well plates (5×10^4 cells/well) and treated with different reagents for the indicated times and incubated at 37° C. with MTS reagent. The optical density of each sample at 490 nm was determined with a Multiskan FC plate reader (Thermo Fisher Scientific, Waltham, Mass. USA).
Background: Tetrazolium dyes change colour on reduction, which living cells bring about.

Assay [7] relates to Me1501 and A375 cells. Description: Colony formation. Format: cell-based, human. Particulars: compared to untreated cells. As to the method: Alternatively, cell growth was assessed by crystal violet staining on cells seeded in 24-well plates for the indicated time. After treatment, cells were fixed in PFA 3% during 20 min, washed with PBS 3 times and stained with crystal violet 0.4% in ethanol 20% for 30 min.

Assay [8] concerns A375 cells. Description: ROS production (CM-H2DCFDA, flow cytometry). In kind it is cell-based, human. The conditions noted are these: 2 μM b-AP15 for 30 min. As to the method:
ROS levels were measured using the redox-sensitive dye CM-H2DCFDA (Thermo Fischer Scientific). After treatment, cells were stained with 10 μM CM-H2DCFDA in PBS for 30 min at 37° C. Cells were washed with PBS and resuspended in PBS 5 mM EDTA/1% BSA. ROS production was analysed using a MACSQuant® Analyzer 10 cytometer (Miltenyi Biotech).
(A flow cytometer gives signals particle by particle.)

Assay [9] concerns m249R. The assay can be described thus: MTS conversion assay, melanoma cell proliferation. Format: cell-based. Particulars: Homo sapiens, MET, BRAFV600E/PTEN*/NRAS*, resistance vemurafenib, 48 h MTS, read-out: b-AP15 IC50. As to the method: as §3
Assay [10] relates to MeWo. The assay can be described thus: MTS conversion assay, melanoma cell proliferation. The conditions noted are these: Homo sapiens, MET, p53*/CDKN2A*, resistance none, 48 h MTS, read-out: b-AP15 IC50. In kind it is cell-based. As to the method: as §3
In assay [11] the test system is WM266-4. The assay can be described thus: MTS conversion assay, melanoma cell proliferation. Format: cell-based. Particulars: Homo sapiens, WM 266-4, MET, BRAFV600D/PTEN*, resistance none, 48 h MTS, read-out: b-AP15 IC50. As to the method:
as §3

Assay [12] relates to A375DR. Description: MTS conversion assay, melanoma cell proliferation. In kind it is cell-based. The conditions noted are these: Homo sapiens, MET, BRAFV600E/CDKN2A*/?, resistance vemurafenib/ERKi, 48 h MTS, read-out: b-AP15 IC50. As to the method:
as §3

Assay [13] concerns WM793. Description: MTS conversion assay, melanoma cell proliferation. Format: cell-based. The conditions noted are these: Homo sapiens, VGP, BRAFV600E/PTEN*, resistance none, 48 h MTS, read-out: b-AP15 IC50. On the procedure:
as §3

For assay [14], the system named is m249. The assay can be described thus: MTS conversion assay, melanoma cell proliferation. Format: cell-based. The conditions noted are these: Homo sapiens, MET, BRAFV600E/PTEN*, resistance none, 48 h MTS, read-out: b-AP15 IC50. As to the method:
as §3

The subject of assay [15] is Mel1617. Description: MTS conversion assay, melanoma cell proliferation. In kind it is cell-based. Particulars: Homo sapiens, MET, BRAF*/p53*, resistance none, 48 h MTS, read-out: b-AP15 IC50. On the procedure: as §3
The subject of assay [16] is m238. The assay can be described thus: MTS conversion assay, melanoma cell proliferation. Format: cell-based. The conditions noted are these: Homo sapiens, MET, BRAFV600E/PTEN*, resistance none, 48 h MTS, read-out: b-AP15 IC50. As to the method:
as §3

Assay [17] relates to m238R. The assay can be described thus: MTS conversion assay, melanoma cell proliferation. In kind it is cell-based. The conditions noted are these: Homo sapiens, MET, BRAFV600E/PTEN*/RTK*, resistance vemurafenib, 48 h MTS, read-out: b-AP15 IC50. On the procedure: as §3
In assay [18] the test system is WM164. The assay can be described thus: MTS conversion assay, melanoma cell proliferation. In kind it is cell-based. Particulars: Homo sapiens, MET, BRAFV600E/CDKN2A*, resistance none, 48 h MTS, read-out: b-AP15 IC50. As to the method: as §3
For assay [19], the system named is SBCL2. Description: MTS conversion assay, melanoma cell proliferation. In kind it is cell-based. Particulars: Homo sapiens, RGP, NRASQ61K, resistance none, 48 h MTS, read-out: b-AP15 IC50. On the procedure: as §3
Assay [20] has as its system Mel1617R. Description: MTS conversion assay, melanoma cell proliferation. Format: cell-based. The conditions noted are these: Homo sapiens, MET, BRAF*/p53*/?, resistance dabrafenib, 48 h MTS, read-out: b-AP15 IC50. On the procedure: as §3
Assay [21] deals with m229. The assay can be described thus: MTS conversion assay, melanoma cell proliferation. Format: cell-based. Particulars: Homo sapiens, MET, BRAFV600E/PTEN*, resistance none, 48 h MTS, read-out: b-AP15 IC50. As to the method: as §3
Assay [22] relates to 451Iu. The assay can be described thus: MTS conversion assay, melanoma cell proliferation. Format: cell-based. Particulars: Homo sapiens, MET, BRAFV600E/p53*, resistance none, 48 h MTS, read-out: b-AP15 IC50. As to the method:
as §3

The test system of assay [23] is HMV2. The assay can be described thus: MTS conversion assay, melanoma cell proliferation. Format: cell-based. Particulars: Homo sapiens, HMV-2, MET, NRAS*, resistance none, 48 h MTS, read-out: b-AP15 IC50. On the procedure: as §3

What is called IC50 is the concentration that inhibits the measured activity by half. Take `Cc1cc(C(=O)CN2CCCC2)c(C)n1-c1ccc(F)cc1` [b-AP15]: the “levels of p53 and of the cell cycle inhibitor p21” value in assay [1] is listed as “increased”. In addition, the “levels of phosphorylated Rb proteins” value in assay [1] is reported as “reducing”. The figures for the “sub-G1 cell population with reduced DNA content” value in assay [2] and in assay [3] were 19% and 11%, respectively. In addition, the K48-linked poly-ubiquitinated proteins result in [4] is “induced a rapid accumulation”. The “effect on cell proliferation, real-time imaging” value in assay [5] was “rapid”. Moreover, the concentration for half-maximal inhibition (IC50) in [6] stood at 3400 nM; in [9], 3000 nM; in assay [10], 700 nM; in [11] it was 500 nM; in [12], 1300 nM; in assay [13] it was 300 nM. Also, the IC50 was 2000 nM in [14]; 1400 nM in assay [15]; 400 nM in assay [16]; 200 nM in assay [17]; 900 nM in [18]; 400 nM in [19]. Also, the IC50 in assay [20] was determined as 900 nM; in assay [21], 1200 nM; in assay [22] it was 900 nM; in assay [23] it was 1800 nM. In addition, in [7], the “ability to form colonies, compound treatment” value was “no longer capable of forming colonies”. For the same compound, the ROS production result in [8] was “triggered a rapid burst of ROS”.
